These results are taken from patent publication US5130117A, “Radiohalogenated benzazepine derivatives and method of imaging dopamine receptors therewith” (Trustees of the University of Pennsylvania, priority 1991, dated 1992).

Entries after “also recorded” stand apart in the source; their conditions may differ. Counter-ions that a name gives are not always drawn. Like-named read-outs stand apart in the source and are kept apart here.

In series [1] the target is central D-1 dopamine receptors. The following applies: cited from earlier work; for Kd: in vitro binding, rat striatum tissue preparation.
The next series concerns D-1 receptor. The following applies: ^11 C label, PET, human brain; cited from earlier work.
The conditions of series [2]: cited from earlier work.
For series [3], the system named is D-1 dopamine receptors. The following applies: cited from earlier work.
Series [4] addresses T1, dopamine D-1 receptor (rat striatal homogenate) (Rattus norvegicus, UniProt P18901).
T1 construct: Striatal tissues were excised, pooled and homogenized; from tissue; host or cells: striatum of male Sprague-Dawley rats
Briefly: Saturation binding of radioiodinated ligand to rat striatal homogenate. To be noted: for affinity to rat striatal homogenate / Kd compared with [^125 I]IBZP (R-(+), active form): in words; for Kd compared with [^125 I]IBZP (R-(+), active form): similar conditions; for Kd: specific binding, rat striatal homogenate, racemic mixture. The method, then: (§1) Male Sprague-Dawley rats (200-250g) were decapitated, and the brains were removed and placed in ice. Striatal tissues were excised, pooled and homogenized in 100 volumes(w/v) of ice-cold Tris-HCl buffer (50 mM), pH 7.4. The homogenates were centrifuged at 20,000×g for 20 min. The resultant pellets were rehomogenized in the same buffer and centrifuged again. The final pellets were resuspended in assay buffer containing: 50 mM Tris buffer pH 7.4, 120 mM NaCl, 5 mM KCl, 2mM CaCl2 and 1 mM MgCl2.
(§2) The binding assays were performed by incubating 50 μl of tissue preparations containing 40-60μg of protein with appropriate amounts of [^125 l]FISCH ligand and competitors in a total volume of 0.2 ml of the assay buffer. After an incubation period of 20 min at 37° C. (with stirring), the samples were rapidly filtered in the cell harvester (Brandel M-24R) under vacuum through Whatman GF/B glass fiber filters pretreated with 0.2% protamine sulfate and washed with 3×5ml of cold (4° C.) 50 mM Tris-HCl buffer, pH 7.4. […] The filters were counted in a gamma counter (Beckman 5500) at an efficiency of 70%.
(§3) Both Scatchard and competition experiments were analyzed using the iterative non-linear least squares curve-fitting program LIGAND.

Series [5] addresses T2, dopamine D-1 receptor (rat striatal membranes) (Rattus norvegicus, UniProt P18901).
T2 construct: Striatal tissues were excised, pooled and homogenized; from tissue; host or cells: striatum of male Sprague-Dawley rats
Briefly: Competition: inhibition of [^125 I]TISCH binding to rat striatal membranes. The following applies: for Ki: [^125 I]TISCH, rat striatal membranes, read-out: ki (mean + SEM). The method, then: as §1, §2, §3

Another series deals with D-1 receptors. Briefly: Activity of optically resolved isomers of FISCH. The following applies: optical resolution of FISCH isomers. The source says:
The compounds of this invention can exist as either R- or S- isomers. It is important to note that the aforementioned data were obtained using a racemic mixture of FISCH.

Series [6] concerns the target T2, dopamine D-1 receptor (rat striatal membranes). Briefly: Competition: inhibition of [^125 I]FISCH binding to rat striatal membranes. The following applies: for Ki: 0.15-0.30 nM [^125 I]FISCH, rat striatal membranes, three to five determinations, read-out: ki (mean + SEM). The protocol:
indicated compounds in 7-11 concentrations and of membrane preparation
from rat striatum. Each value represenets the mean ± SEM of three to
as §1, §2, §3

Series [7] is described as follows: Biodistribution in rats of [^125 I]FISCH after iv injection. In kind it is in vivo, male Sprague Dawley rats. The following applies: rat; for brain uptake: iv. The method, then:
Biodistribution of [^125 l]FISCH was studied in male Sprague Dawley rats (225-300g) which were allowed free access to food and water. While under halothane anesthesia, 0.2 ml of a saline solution containing [^125 l]FISCH was injected directly into the femoral vein, and the rats were sacrificed at various time points post injection by cardiac excision under halothane anesthesia. The organs of interest were removed, weighed and radioactivity was counted using a Beckman gamma automatic counter (Model 4000). The percent dose per organ was calculated by a comparison of the tissue counts to suitably diluted aliquots of the injected material. Total activities of blood and muscle were calculated assuming that they are 7% and 40% of total body weight, respectively.

Series [8] concerns D-1 dopamine receptors. The following applies: rat, in vivo; for striatum/cerebellum (ST/CB) ratio: iv.
Protocol: Regional brain distribution in rats was obtained after an iv injection of [^125 l]FISCH. By dissecting, weighing and counting samples from different brain regions (cortex, striatum, hippocampus and cerebellum), % dose/gram of samples was calculated by comparing the sample counts with the counts of the diluted initial dose. The uptake ratio of each region was obtained by dividing % dose/gram of each region with that of the cerebellum.

T1 sequence (P18901 whole entry): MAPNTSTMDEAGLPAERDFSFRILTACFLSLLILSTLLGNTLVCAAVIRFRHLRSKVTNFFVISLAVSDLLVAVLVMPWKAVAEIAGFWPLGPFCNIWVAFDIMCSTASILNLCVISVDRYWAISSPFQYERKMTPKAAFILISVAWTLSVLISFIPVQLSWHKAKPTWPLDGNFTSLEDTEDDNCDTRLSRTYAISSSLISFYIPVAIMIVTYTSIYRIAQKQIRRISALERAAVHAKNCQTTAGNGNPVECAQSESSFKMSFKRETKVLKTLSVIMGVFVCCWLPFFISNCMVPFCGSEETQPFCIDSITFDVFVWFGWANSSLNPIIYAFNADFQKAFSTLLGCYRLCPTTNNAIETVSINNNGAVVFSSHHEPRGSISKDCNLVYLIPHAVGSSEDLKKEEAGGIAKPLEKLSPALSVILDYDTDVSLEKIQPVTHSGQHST
T2 sequence (P18901 whole entry): as above

The term Kd denotes the concentration at which binding is half-saturated. `CN1CCc2cc(Cl)c(O)cc2[C@@H](c2ccccc2)C1` [SCH-23390, R-(+)-8-chloro-2,3,4,5-tetrahydro-3-methyl5-phenyl-1H-3-benzazepine-7-ol]: the Kd in [1] is 0.36 nM. Further, the regional brain concentration entry in the series on D-1 receptor is on record as “highest concentration in the basal ganglia area”.

With `CN1CCc2cc(I)c(O)cc2[C@@H](c2ccccc2)C1` [IBZP], in [1], the Kd was 0.7 nM. The “selectivity/specificity for central D-1 dopamine receptors” value in [1] (in words) is “high specificity for central D-1 dopamine receptors”. Besides, the “in vivo and in vitro stability” value in series [2] (in words, deiodination) was “poor in vivo and in vitro stability”. Besides, in series [2] (in words), the “retention time in the brain” value is given as “short retention time in the brain”. For the same compound, the brain uptake in series [2] (rat, iv, 2 minutes post injection) is reported as 2.7 %dose/organ; in series [2] (rat, iv, 15 minutes post injection), 1.2 %dose/organ; in [2] (rat, iv, 30 minutes post injection), 0.8 %dose/organ; in series [2] (rat, iv, 60 minutes (one hour) post injection), 0.26 %dose/organ. Further, the brain localization entry in series [2] (rat, iv) is listed as “good localization in rat brains”. Also, the thyroid uptake result in [2] (rat, later time points) is given as “high at later time points”; in [2] (rat, one hour post injection) it was 0.1%. Further, the “blockade of specific uptake regions by pretreatment with SCH-23390” value in the series with D-1 dopamine receptors [3] (in vivo autoradiography) was “can be blocked by pretreatment with SCH-23390”. For the same compound, the “regional distribution in rat brain (caudate putamen, accumbens nucleus and substantia nigra)” value in the series with D-1 dopamine receptors [3] (in vivo autoradiography) is “high uptake”. The “uptake ratio of striatum/cerebellum” value is 1.1 in the series on D-1 dopamine receptors [3] (rat, thirty seconds after injection) and 5.3 in the series with D-1 dopamine receptors [3] (rat, two hours after injection). Moreover, the “striatum/cerebellum uptake ratio, change with time” value in the series on D-1 dopamine receptors [3] (rat) is “increased with time”.

The term Ki denotes the dissociation constant of the complex between target and ligand, obtained from inhibition or displacement. For the compound `CN1CCc2cc(Cl)c(O)cc2C(c2cccc(I)c2)C1` (stereo not drawn) [TISCH], in [4], the “affinity to rat striatal homogenate” value was “high affinity”; the “Kd compared with [^125 I]IBZP (R-(+), active form)” value is on record as “comparable”; the Kd is 0.35 nM. Also, the Ki in series [5] was determined as 0.55 ± 0.05 nM. Also, in series [5] (in words, from Tables 2 and 3), the “selectivity for dopamine D-1 receptor” value is recorded as “high selectivity”.

Take `CN1CCc2cc(Cl)c(O)cc2[C@@H](c2ccc(I)cc2)C1` [R+ isomer]: in the series on D-1 receptors, the activity of isomer result is given as “active”.

For the compound `CN1CCc2ccc(O)cc2[C@@H](c2ccccc2)C1` [SKF-83692], in series [1], the Kd is 197 nM.

For the compound `CN1CCc2cc(Cl)c(O)cc2C(c2ccc(I)cc2)C1` (racemic) [FISCH, (±)-8-chloro-2,3,4,5-tetrahydro-3-methyl-5-(4'-[^125 I]iodophenyl) -1H-3-benzazepine-7-ol], the Kd in series [4] was determined as 1.43 nM. Moreover, the figures for the Ki in series [6] and in series [5] were 1.71 ± 0.17 nM and 2.07 ± 0.35 nM, respectively.

For the compound `COc1cccc(OC)c1OCCNCC1COc2ccccc2O1` (stereo not drawn) [WB 4101, 2(2,6-dimethoxyphenoxyethyl)-aminomethyl-1,4-benzodioxane hydrochloride, reference compound], in [6], the Ki worked out at 1270 ± 203 nM.

With `CN1CCc2cc(Cl)c(O)cc2[C@H](c2ccc(I)cc2)C1` [S- isomer], the activity of isomer result in the series on D-1 receptors is “inactive”.

Turning to `CN1CCc2cc(I)c(O)cc2C(c2ccccc2)C1` (racemic) [(±) IBZP, reference compound], the Ki in [6] worked out at 13.4 ± 0.54 nM.

Consider `CN1CCc2cc(Cl)c(O)cc2C(c2ccc([125I])cc2)C1` (racemic) [FISCH, (±)-8-chloro-2,3,4,5-tetrahydro-3-methyl-5-(4'-[^125 I]iodophenyl) -1H-3-benzazepine-7-ol], for which the nonspecific binding result in series [4] (at Kd, rat striatum, FIG. 2) is given as “approximately 15%”. In addition, in series [4], the “affinity to rat striatal homogenate” value is “high affinity” and the “Kd compared with [^125 I]IBZP (R-(+), active form)” value is recorded as “comparable”. Besides, in series [6] (in words, from Tables 2 and 3), the “selectivity for dopamine D-1 receptor” value is “high selectivity”. In addition, the lung clearance result in [7] (fifteen and sixty minutes) is on record as “rapid clearance”. Moreover, in series [7] (in words), the “brain uptake / blood-brain barrier passage” value is “good brain uptake in rats; also recorded: passes through the blood-brain barrier with ease” and the “in vivo stability (deiodination) compared with [^125 I]IBZP” value is reported as “better in vivo stability”. Besides, the lung uptake result in series [7] (initial) was “High initial uptake”. In series [7] (one hour after injection), this compound registered a brain uptake of 0.55 % dose/organ. Moreover, the brain uptake in series [7] (two minutes after injection) amounted to 2.27 % dose/organ. For the same compound, in series [7] (one hour post injection), the “brain retention compared with [^125 I]IBZP” value is “much better” and the thyroid uptake came to 0.04%. For the same compound, the liver uptake result in series [7] (throughout the first hour) is listed as “remains high throughout the first hour”. Moreover, in the series with D-1 dopamine receptors [8], the “ST/CB ratio, change with time” value is “dramatic increase with time”. The “striatum/cerebellum (ST/CB) ratio” value with D-1 dopamine receptors [8] (2 min) stood at 1.24. Besides, the “striatum/cerebellum (ST/CB) ratio” value in the series with D-1 dopamine receptors [8] (15 min) was 1.80. Further, the “striatum/cerebellum (ST/CB) ratio” value with D-1 dopamine receptors [8] (60 min) worked out at 2.47.
